Source: ChEMBL document CHEMBL1140924, “Biomedical application of orexin/hypocretin receptor ligands in neuroscience” (J Med Chem, 2009)
Converted amounts (≈) assume the structure as drawn.

Assays:
Orexin receptor type 2 [1] = target: T1, Orexin receptor type 2 (Homo sapiens, UniProt O43614); experiment: Antagonist activity at OX2 receptor by FLIPR; format: functional
T1 sequence (O43614 whole entry): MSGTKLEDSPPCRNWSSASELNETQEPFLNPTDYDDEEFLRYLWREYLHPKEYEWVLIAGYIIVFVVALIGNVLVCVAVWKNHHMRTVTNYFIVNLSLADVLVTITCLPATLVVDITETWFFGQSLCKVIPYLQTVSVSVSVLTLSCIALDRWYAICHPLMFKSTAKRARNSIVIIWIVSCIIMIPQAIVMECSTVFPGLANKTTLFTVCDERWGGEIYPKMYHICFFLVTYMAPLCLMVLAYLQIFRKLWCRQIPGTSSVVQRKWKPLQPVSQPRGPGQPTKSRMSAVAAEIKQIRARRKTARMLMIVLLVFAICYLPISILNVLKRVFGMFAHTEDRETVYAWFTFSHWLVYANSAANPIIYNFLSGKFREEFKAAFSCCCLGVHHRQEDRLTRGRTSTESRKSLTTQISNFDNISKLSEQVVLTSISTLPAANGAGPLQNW

[2] = target: T2, Orexin/Hypocretin receptor type 1 (Homo sapiens, UniProt O43613); experiment: Antagonist activity at OX1 receptor by FLIPR; format: functional
T2 sequence (O43613 whole entry): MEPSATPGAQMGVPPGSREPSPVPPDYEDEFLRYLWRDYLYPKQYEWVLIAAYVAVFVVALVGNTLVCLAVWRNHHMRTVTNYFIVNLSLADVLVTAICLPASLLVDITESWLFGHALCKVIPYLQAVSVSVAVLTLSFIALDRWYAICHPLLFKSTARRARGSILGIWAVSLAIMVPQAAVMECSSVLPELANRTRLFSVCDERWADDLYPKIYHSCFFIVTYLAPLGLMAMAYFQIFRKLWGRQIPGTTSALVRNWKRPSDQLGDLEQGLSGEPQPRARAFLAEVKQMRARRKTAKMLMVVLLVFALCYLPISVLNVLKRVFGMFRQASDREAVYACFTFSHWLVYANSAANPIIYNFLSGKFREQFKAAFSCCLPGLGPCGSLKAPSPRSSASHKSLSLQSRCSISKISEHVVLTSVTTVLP

Orexin receptor type 2 [3] = target: T1, Orexin receptor type 2; experiment: Antagonist activity at human OX2 receptor; format: functional
[4] = target: T2, Orexin/Hypocretin receptor type 1; experiment: Antagonist activity at human OX1 receptor; format: functional
[5] = Selectivity of Ki for OX1 receptor to Ki for OX2 receptor
Orexin receptor type 2 [6] = target: T1, Orexin receptor type 2; experiment: Binding affinity to OX2 receptor
[7] = target: T2, Orexin/Hypocretin receptor type 1; experiment: Binding affinity to OX1 receptor
[8] = target: T3, Orexin/Hypocretin receptor type 1 (Homo sapiens) (UniProt O43613); experiment: Antagonist activity at human OX1 receptor expressed in CHO cells assessed as inhibition of receptor-mediated calcium response by FLIPR; format: functional, cell-based
T3 sequence (whole entry): T2 sequence (O43613 whole entry)

[9] = target: T4, Orexin receptor type 2 (Homo sapiens) (UniProt O43614); experiment: Antagonist activity at human OX2 receptor expressed in CHO cells assessed as inhibition of receptor-mediated calcium response by FLIPR; format: functional, cell-based
T4 sequence (whole entry): T1 sequence (O43614 whole entry)

[10] = Inhibition of galanin receptor at 10 uM
[11] = Inhibition of neuropeptide Y receptor at 10 uM
[12] = Selectivity for OX1 receptor over OX2 receptor
[13] = Aqueous solubility at pH 7; format: physicochemical
[14] = target: T5, Neuromedin-K receptor (Homo sapiens) (UniProt P29371); experiment: Inhibition of neurokinin-3 receptor at 10 uM
T5 sequence (whole entry): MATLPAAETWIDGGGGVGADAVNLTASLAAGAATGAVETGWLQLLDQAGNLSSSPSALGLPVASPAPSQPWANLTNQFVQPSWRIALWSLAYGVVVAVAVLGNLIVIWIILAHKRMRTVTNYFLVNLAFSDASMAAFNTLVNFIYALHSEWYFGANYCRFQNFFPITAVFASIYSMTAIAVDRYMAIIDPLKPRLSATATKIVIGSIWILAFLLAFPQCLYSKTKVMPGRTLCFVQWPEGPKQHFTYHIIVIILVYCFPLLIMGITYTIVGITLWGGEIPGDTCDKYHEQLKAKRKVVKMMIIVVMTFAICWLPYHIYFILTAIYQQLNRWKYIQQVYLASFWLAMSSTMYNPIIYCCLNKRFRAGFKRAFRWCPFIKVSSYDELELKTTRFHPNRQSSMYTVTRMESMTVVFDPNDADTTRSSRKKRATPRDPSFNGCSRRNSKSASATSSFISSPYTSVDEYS

[15] = target: Kappa-type opioid receptor (Homo sapiens) (UniProt P41145); experiment: Inhibition of kappa opioid receptor at 10 uM
[16] = target: T6, Neuropeptide Y receptor type 1 (Homo sapiens) (UniProt P25929); experiment: Inhibition of NPY1 receptor at 10 uM
T6 sequence (whole entry): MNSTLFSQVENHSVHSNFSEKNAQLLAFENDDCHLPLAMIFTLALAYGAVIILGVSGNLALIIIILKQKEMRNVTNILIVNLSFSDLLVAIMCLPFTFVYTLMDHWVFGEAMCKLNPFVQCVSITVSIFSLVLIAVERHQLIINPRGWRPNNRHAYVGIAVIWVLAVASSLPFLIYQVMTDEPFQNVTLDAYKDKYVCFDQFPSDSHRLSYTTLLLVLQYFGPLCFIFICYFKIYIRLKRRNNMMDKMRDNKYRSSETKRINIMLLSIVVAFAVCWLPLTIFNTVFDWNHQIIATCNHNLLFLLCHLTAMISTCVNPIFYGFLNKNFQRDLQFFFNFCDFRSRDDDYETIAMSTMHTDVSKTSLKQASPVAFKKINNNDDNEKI

Chain of Kappa-type opioid receptor (Homo sapiens) (P41145 whole entry): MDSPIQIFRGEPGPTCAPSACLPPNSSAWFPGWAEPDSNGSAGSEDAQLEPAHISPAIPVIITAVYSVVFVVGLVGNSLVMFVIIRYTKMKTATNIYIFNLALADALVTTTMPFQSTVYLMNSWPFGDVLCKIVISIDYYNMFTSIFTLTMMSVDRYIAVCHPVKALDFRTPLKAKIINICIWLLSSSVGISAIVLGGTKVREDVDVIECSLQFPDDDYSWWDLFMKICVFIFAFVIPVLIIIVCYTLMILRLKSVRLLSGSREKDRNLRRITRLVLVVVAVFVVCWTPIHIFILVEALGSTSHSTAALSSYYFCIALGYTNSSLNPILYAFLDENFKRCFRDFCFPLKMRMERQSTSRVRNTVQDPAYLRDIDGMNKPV

Ratio [5]	Ki (Orexin receptor type 2 [6]) [nM]	Ki [7] [nM]	SMILES	other results
			Cc1cccc(-c2sc(CCCO)nc2C(=O)N2C[C@H]3C[C@H]3[C@H]2CNC(=O)c2c(C)nc3sccn23)c1	IC50 (Orexin receptor type 2 [1]): 17 nM; IC50 [2]: 19 nM
			CCc1nc(OC)c2n1CCN([C@@H](C(=O)NC)c1ccccc1)[C@H]2CCc1ccc(C)c(F)c1	IC50 (Orexin receptor type 2 [1]): 2 nM; IC50 [2]: 49 nM
			CCN(Cc1ccn(C)n1)C(=O)CN(c1cc(N(C)C)ccc1Cl)S(=O)(=O)c1ccc(OC)c(OC)c1	IC50 (Orexin receptor type 2 [1]): 7 nM; IC50 [2]: 12 nM
			CNC1CCCC1CN[C@H](C(=O)N1CCc2cc(OC)c(OC)cc2C1)C(C)(C)C (stereo not given in full)	IC50 (Orexin receptor type 2 [3]): 28 nM; IC50 [4]: 3600 nM
			CCN(Cc1cccc(C)n1)C(=O)CN(c1cc(N(C)C)ccc1Cl)S(=O)(=O)c1ccc(OC)c(OC)c1	IC50 (Orexin receptor type 2 [1]): 5 nM; IC50 [2]: 17 nM
9	> 10000	1000	CC1(C)OC[C@H](NC(=O)Nc2cccc(Br)c2)[C@H](c2ccccc2)O1	
			CCc1nc(OC)c2n1CCN([C@@H](C(=O)NC)c1ccccc1)[C@H]2CCc1ccc(C)c(C)c1	IC50 (Orexin receptor type 2 [1]): 4 nM; IC50 [2]: 5 nM
900	> 5010	6.31	CC1(C)OC[C@H](NC(=O)Nc2ccc(Br)cc2Cl)[C@H](c2ccccc2)O1	
100	> 10000	79.4	CC1(C)OC[C@H](NC(=O)Nc2ccccc2Cl)[C@H](c2ccccc2)O1	
			COc1cc2c(cc1OC)CN(C(=O)C(Cc1ccccc1)C(=O)c1cc(Cl)cc(Cl)c1)CC2 (racemic)	IC50 (Orexin receptor type 2 [3]): 36 nM; IC50 [4]: 5300 nM
			Cn1ccc2cc(NC(=O)Nc3ccnc4ccccc34)ccc21	pKb [8]: 7.5; pKb [9]: 5.6
			COc1cc2c(cc1OC)CN(C(=O)[C@@H](NCc1ccncc1)C(C)(C)C)CC2	inhibition [10]: < 30%; inhibition [11]: < 30%
			Cc1nc(C(=O)N2CCC[C@H]2Cc2nnc(-c3ccccc3)o2)c(-c2ccccc2F)s1	Kd [7]: 5.13 nM; Ratio [12]: > 100
100	> 10000	100	CC1(C)OC[C@H](NC(=O)Nc2ccccc2C(F)(F)F)[C@H](c2ccccc2)O1	
			CN(C)c1ccc(NC(=O)Nc2ccnc3c(F)ccc(F)c23)cc1	Kd [7]: 4.47 nM; Ratio [12]: > 50
80	> 5010	63.1	CC1(C)OC[C@H](NC(=O)Nc2cc(Cl)ccc2Cl)[C@H](c2ccccc2)O1	
200	> 10000	39.8	Cc1cc(Br)ccc1NC(=O)N[C@H]1COC(C)(C)O[C@H]1c1ccccc1	
			Cc1cc(NC(=O)Nc2ccc(N(C)C)cc2)c2cc(F)cc(F)c2n1	Kd [7]: 26.9 nM; Ratio [12]: > 50
80	> 5010	63.1	Cc1ccc(Cl)c(NC(=O)N[C@H]2COC(C)(C)O[C@H]2c2ccccc2)c1	
40	> 10000	251	CC1(C)OC[C@H](NC(=O)Nc2ccc(Br)cc2)[C@H](c2ccccc2)O1	
4	> 10000	2510	COc1ccccc1NC(=O)N[C@H]1COC(C)(C)O[C@H]1c1ccccc1	
			COc1cc2c(cc1OC)CN(C(=O)C(Cc1ccccc1)c1ccccc1)CC2 (racemic)	solubility [13]: 810 µg/mL (≈ 2020 µM)
70	> 10000	126	Cc1ccc(NC(=O)N[C@H]2COC(C)(C)O[C@H]2c2ccccc2)c(C)c1	
70	> 5010	79.4	CC1(C)OC[C@H](NC(=O)Nc2ccccc2I)[C@H](c2ccccc2)O1	
600	3160		CC1(C)OC[C@H](NC(=O)Nc2ccc(Br)cc2Br)[C@H](c2ccccc2)O1	inhibition [14]: < 40%; inhibition [15]: < 40%; inhibition [16]: < 40%
			CCN(Cc1cc(C)n(C)n1)C(=O)CN(c1cc(N(C)C)ccc1Cl)S(=O)(=O)c1ccc(OC)c(OC)c1	IC50 (Orexin receptor type 2 [1]): 4 nM; IC50 [2]: 6 nM
